Earlier results as cited in patent US9771618B2, “Methods for treating breast cancer” (Bioarray Genetics, Inc., priority 2009, dated 2017).

System: locally advanced breast cancer
Settings: 24 tumors of the Chang, et al. dataset (10 of 24); response assessed after neoadjuvant chemotherapy

Compound: CC(=O)O[C@H]1C(=O)[C@@]2(C)[C@H]([C@H](OC(=O)c3ccccc3)[C@]3(O)C[C@H](OC(=O)[C@H](O)[C@@H](NC(=O)c4ccccc4)c4ccccc4)C(C)=C1C3(C)C)[C@]1(OC(C)=O)CO[C@@H]1C[C@@H]2O [taxol, paclitaxel]
- overall taxol sensitive rate: 41.7%
